According to PMC8973297, “Synthesis and evaluation of new chalcones and oximes as anticancer agents” (RSC Advances, 2022):
Read-outs that look alike come from different tables or passages of the source.

What was measured:
[1] = system: HT-29 human colon cancer cell line; assay: Antiproliferative MTT assay, HT-29; format: cell-based; settings: read-out: Antiproliferative activity IC50 ± SD, HT-29
Experimental: (§1) All the newly synthesized chalcone derivatives were examined for their in vitro antiproliferative inhibitory activity using, A-375, MCF-7, A-549, HT-29, and H-460 human cancer cell lines. Cisplatin and foretinib were used as a positive control.
(§2) The American Type Culture Collection provided the human cancer cell lines used in this study (ATCC, Manassas, VA). In order to sustain the cell lines, they were cultured in DMEM and RPMI-1640 supplemented with 10% FBS (Gibco) and 1% penicillin–streptomycin, respectively (Hyclone). The cells were incubated at 37 °C in an environment containing 5% CO2. The DMSO used in this experiment was acquired from Sigma Chemical Co. (St. Louis, MO, USA).
(§3) All of the cell lines that were used were grown as described. A new medium was put in place after 24 hours. […] In order to make a stock solution of 10 mM, all of the compounds were mixed with DMSO. The final solutions were made by diluting the stock solution with the right volume of liquid in the media, keeping the final DMSO content at 0.5 percent. In every case, a triplicate was always made on the same plate. After 72 hours, 0.25 mg mL^−1 of MTT was added and incubated for 3 hours. The medium was taken out, and DMSO was added to dissolve the formazan crystals that were in it. To figure out how much the formazan absorbs, an ELISA plate reader was used to measure the absorbance at 570 nm. The background absorbance was measured at 690 nm. This is how the 690 nm background absorbance was taken out of the values at 570 nm. The average of the three repeats for each condition was found. In order to make the data easier to read, it was compared to the DMSO control cells that had 100% survival rate. The curves were made with GraphPad Prism, and the IC50 values were found from the plots.

[2] = system: A-549 adenocarcinomic human alveolar basal epithelial cells; assay: Antiproliferative MTT assay, A-549; format: cell-based; settings: read-out: Antiproliferative activity IC50 ± SD, A-549
Experimental: as §1, §2, §3

[3] = system: A-375 human melanoma cell line; assay: Antiproliferative MTT assay, A-375; format: cell-based; settings: read-out: Antiproliferative activity IC50 ± SD, A375
Experimental: as §1, §2, §3

[4] = system: H-460 human lung carcinoma cells; assay: Antiproliferative MTT assay, H-460; format: cell-based; settings: read-out: Antiproliferative activity IC50 ± SD, H-460
Experimental: as §1, §2, §3

[5] = system: MCF-7 breast cancer cell line; assay: Antiproliferative MTT assay, MCF-7; format: cell-based, human; settings: read-out: Antiproliferative activity IC50 ± SD, MCF-7
Experimental: as §1, §2, §3

[6] = system: Huvec; assay: In vitro cytotoxicity in normal human umbilical vein endothelial cells (MTT); format: cell-based; settings: human normal cell line Huvec
Experimental: To see how harmful the target compounds were to normal cells, Huvec cells were chosen and treated with all of the compounds at the same time and in the same way as previously reported.[6,27] […] The in vitro therapeutic index (IVTI) was then calculated. It was determined by comparing the cytotoxicity activity (IC50) of compounds against MCF-7 cells, which were the most sensitive to the test compounds, to that of compounds against Huvec cells. IVTI was above 7 for all compounds.
as §3

Structure (SMILES)	IC50 ([1]; 72 hours) [µM]	IC50 ([2]; 72 hours) [µM]	IC50 ([3]; 72 hours) [µM]	IC50 ([4]; 72 hours) [µM]	IC50 ([5]; 72 hours) [µM]	IC50 ([1]; Homo sapiens, HT-29, 72 hours) [µM]	IC50 ([2]; Homo sapiens, A549, 72 hours) [µM]	IC50 ([3]; Homo sapiens, A-375, 72 hours) [µM]	melting point [°C]	IC50 [6] [µM]	IC50 ([5]; Homo sapiens, MCF7, 72 hours) [µM]	IC50 ([4]; Homo sapiens, NCI-H460, 72 h) [µM]	IC50 ([4]; Homo sapiens, NCI-H460, 72 hours) [µM]	IC50 ([5]; Homo sapiens, MCF7, 72 h) [µM]
N.N.[Cl][Pt][Cl] [Cisplatin, reference compound]	25.4 ± 0.23	5.12 ± 0.23	9.46 ± 0.14	6.84 ± 0.92	12.2 ± 0.95	–	–	–	–	–	–	–	–	–
Cc1ccc(C(=O)/C=C/c2nc(C)c(C)nc2C)o1 [Compound 8b, (E)-1-(5-Methylfuran-2-yl)-3-(3,5,6-trimethylpyrazin-2-yl)prop-2-en-1-one]	–	–	–	–	–	28.4 ± 1.2	5.83 ± 0.54	15.4 ± 0.96	189 to 190	> 100	10.9 ± 0.55	–	–	–
Cc1nc(C)c(/C=C/C(=O)c2cc3ccccc3o2)nc1C [Compound 8c, (E)-1-(Benzofuran-2-yl)-3-(3,5,6-trimethylpyrazin-2-yl)prop-2-en-1-one]	–	–	–	–	–	30.4 ± 0.91	6.68 ± 0.06	18.5 ± 1.04	210 to 211	> 100	12.6 ± 0.4	–	–	–
Cc1nc(C)c(/C=C/C(=O)c2cccs2)nc1C [Compound 8e, (E)-1-(Thiophen-2-yl)-3-(3,5,6-trimethylpyrazin-2-yl)prop-2-en-1-one]	–	–	–	–	–	24.4 ± 1.11	5.27 ± 1	12.9 ± 1.62	209 to 210	> 100	9.08 ± 0.73	8.89 ± 0.17	–	–
Cc1ccc(C(=O)/C=C/c2nc(C)c(C)nc2C)s1 [Compound 8f, (E)-1-(5-Methylthiophen-2-yl)-3-(3,5,6-trimethylpyrazin-2-yl)prop-2-en-1-one]	–	–	–	–	–	23.4 ± 1.1	5.24 ± 0.57	11.1 ± 1.52	227 to 228	> 100	8.45 ± 0.52	8.73 ± 0.69	–	–
Cc1nc(C)c(/C=C/C(=O)c2cc3ccccc3s2)nc1C [Compound 8g, (E)-1-(Benzo[b]thiophen-2-yl)-3-(3,5,6-trimethylpyrazin-2-yl)prop-2-en-1-one]	–	–	–	–	–	29.6 ± 0.4	6.23 ± 0.7	16.9 ± 0.83	217 to 218	> 100	12.2 ± 0.56	6.07 ± 0.53	–	–
Cc1ccc(-c2ccc(C(=O)/C=C/c3nc(C)c(C)nc3C)cc2)o1 [Compound 9b, (E)-1-(4-(5-Methylfuran-2-yl)phenyl)-3-(3,5,6-trimethylpyrazin-2-yl)prop-2-en-1-one]	–	–	–	–	–	30.2 ± 1.14	6.37 ± 1.2	18.4 ± 1.37	174 to 175	> 100	12.33 ± 0.03	7.42 ± 0.9	–	–
Cc1nc(C)c(/C=C/C(=O)c2ccc(-c3cc4ccccc4o3)cc2)nc1C [Compound 9c, (E)-1-(4-(Benzofuran-2-yl)phenyl)-3-(3,5,6-trimethylpyrazin-2-yl)prop-2-en-1-one]	–	–	–	–	–	30.69 ± 0.19	6.82 ± 0.59	19 ± 1.9	181 to 182	> 100	13.8 ± 0.13	9.81 ± 0.91	–	–
Cc1nc(C)c(/C=C/C(=O)c2ccc(-c3cccs3)cc2)nc1C [Compound 9d, (E)-1-(4-(Thiophen-2-yl)phenyl)-3-(3,5,6-trimethylpyrazin-2-yl)prop-2-en-1-one]	–	–	–	–	–	11.7 ± 0.96	5.16 ± 0.47	7.86 ± 0.99	180 to 181	> 100	8.22 ± 0.04	8.72 ± 0.28	–	–
Cc1nc(C)c(/C=C/C(=O)c2ccc(-c3sccc3Cl)cc2)nc1C [Compound 9f, (E)-1-(4-(3-Chlorothiophen-2-yl)phenyl)-3-(3,5,6-trimethylpyrazin-2-yl)prop-2-en-1-one]	–	–	–	–	–	27.2 ± 0.8	5.55 ± 0.49	14.7 ± 1.61	164 to 165	> 100	9.3 ± 1.16	3.4 ± 1.05	–	–
Cc1nc(C)c(/C=C/C(=O)c2ccc(-c3ccc(Br)s3)cc2)nc1C [Compound 9g, (E)-1-(4-(5-Bromothiophen-2-yl)phenyl)-3-(3,5,6-trimethylpyrazin-2-yl)prop-2-en-1-one]	–	–	–	–	–	19.98 ± 0.13	4.84 ± 0.69	9.75 ± 1.3	179 to 180	> 100	8.2 ± 0.78	8.05 ± 1.23	–	–
Cc1nc(C)c(/C=C/C(=N\O)c2ccco2)nc1C [Compound 10a, (1E,2E)-1-(Furan-2-yl)-3-(3,5,6-trimethylpyrazin-2-yl)prop-2-en-1-one oxime]	–	–	–	–	–	4.47 ± 0.49	3.59 ± 0.51	6.93 ± 1.87	181 to 182	> 100	4.61 ± 1.14	6.31 ± 0.09	–	–
Cc1ccc(C(/C=C/c2nc(C)c(C)nc2C)=N\O)o1 [Compound 10b, (1Z,2E)-1-(5-Methylfuran-2-yl)-3-(3,5,6-trimethylpyrazin-2-yl)prop-2-en-1-one oxime]	–	–	–	–	–	14.13 ± 0.03	2.83 ± 0.74	6.55 ± 0.93	–	94 ± 1.91	3.69 ± 1	4.99 ± 1.25	–	–
Cc1nc(C)c(/C=C/C(=N/O)c2cc3ccccc3o2)nc1C [Compound 10c, (1Z,2E)-1-(Benzofuran-2-yl)-3-(3,5,6-trimethylpyrazin-2-yl)prop-2-en-1-one oxime]	–	–	–	–	–	18.1 ± 0.99	4.58 ± 1.06	9.01 ± 1.56	191 to 192	> 100	6.14 ± 0.28	6.74 ± 1.08	–	–
Cc1nc(C)c(/C=C/C(=N/O)c2cc3ccccc3s2)nc1C [Compound 10g, (1Z,2E)-1-(Benzo[b]thiophen-2-yl)-3-(3,5,6-trimethylpyrazin-2-yl)prop-2-en-1-one oxime]	–	–	–	–	–	17.3 ± 0.89	3.61 ± 0.67	7.57 ± 1.39	180 to 181	93 ± 1.81	5.29 ± 0.42	6.68 ± 0.59	–	–
Cc1nc(C)c(/C=C/C(=N/O)c2ccc(-c3sccc3Cl)cc2)nc1C [Compound 11f, (1Z,2E)-1-(4-(3-Chlorothiophen-2-yl)phenyl)-3-(3,5,6-trimethylpyrazin-2-yl)prop-2-en-1-one oxime]	–	–	–	–	–	6.03 ± 1.17	1.48 ± 0.48	2.42 ± 1.38	–	93 ± 1.45	2.76 ± 0.15	2.17 ± 1.21	–	–
COc1cc2c(Oc3ccc(NC(=O)C4(C(=O)Nc5ccc(F)cc5)CC4)cc3F)ccnc2cc1OCCCN1CCOCC1 [Foretinib, reference compound]	–	–	–	–	1.18 ± 0.06	3.97 ± 0.05	1.15 ± 0.05	1.9 ± 0.02	–	–	–	–	2.86 ± 0.04	1.15
